Measured values from patent US20240415801A1, “Methods and Compositions for Treating Fibroids” (Lundquist Institute for Biomedical Innovation at …, priority 2023, published 2024).

Experiments:
fibroid xenografts [1] = test: Histology and immunohistochemistry of xenografts (Example 2); format: in vivo, SCID/Beige mice; conditions: 5 mg/kg, 8 weeks
Source text: After fixation with 4% paraformaldehyde and routine dehydration, a portion of xenograft samples were embedded in paraffin. To evaluate histologic characteristics, 5-μm-thick paraffin sections of xenografts were stained with hematoxylin and eosin (H-3502, Vector Laboratories, Inc.) and Masson's trichrome stain (HT15-1 KT, Sigma-Aldrich) according to the manufacturer's instructions.
For Immunohistochemistry, the xenografts were fixed with 4% paraformaldehyde in PBS, and subsequently transferred to PBS containing 30% sucrose (wt/vol) until equilibrated in cold (4° C.). After fixation, 5-μm-thick paraffin sections were treated three times with Histo-Clear™ (National Diagnostics, Atlanta, GA) for 5 min, and rehydrated by a sequential ethanol wash, and then incubated in target retrieval solution (Dako, Carpinteria, CA) in a microwave for 10 min in order to retrieve the antigens. For blocking, tissues were incubated for 10 minutes with 3% solution of H2O2 followed by incubation with PBS-5% normal goat serum-0.2% Triton X-100. Tissue sections were incubated with primary antibody rabbit anti-Ki67 (dilution 1:250, 27309-1-AP, Proteintech Group, Inc), rabbit anti-cleaved caspase-3 (dilution 1:50, #9664, Cell Signaling Technology), rabbit anti-CCND1 (dilution 1:50, #55506, Cell Signaling Technology) and mouse anti-E2F1 (dilution 1:50, sc-251, Santa Cruz Biotechnology, Inc.) overnight at 4° C. in a humidified chamber. The antigens were then visualized using biotinylated antibodies and streptavidin, conjugated with horseradish peroxidase. Control sections were incubated with the secondary antibody, with replacement of primary antibody with the dilution reagent (Dako). Diaminobenzidine (Dako) which served as the substrate. […] Immunostained sections were examined under a microscope (Olympus IX83; Olympus Surgical Technologies America) and five representative images of each slide were quantitatively analyzed with the use of Halo software (Indica Labs Inc.) and were averaged for comparative analysis between vehicle and […] treatment groups in a blinded fashion.

human fibroid explants = test: Fibroid explant culture, qRT-PCR; format: cell-based; conditions: 5 μM, 48 hours
Protocol: Quantitative RT-PCR was performed as previously described. Selected gene expression levels were assessed utilizing the Invitrogen StepOne System, with normalization against 18S. Triplicate reactions were conducted, and relative mRNA expression was calculated using the comparative cycle threshold method (2−ΔΔCt), with results presented as fold change relative to the control group. The primer sequences used are shown in the following Sequence Table:
Equal weights of fibroid explants, aseptically cut from the same patient, were plated in 6-well plates containing complete medium. They were then incubated for 48 hours with either vehicle or Bay (5 μM).

fibroid xenografts [2] = test: RNA sequencing of fibroid xenografts (Example 1); format: in vivo, SCID/Beige mice; conditions: for number of downregulated transcripts (RNAseq) / number of upregulated transcripts (RNAseq): cutoff 1.5 fold, xenografts after two months, n=4 vs 4 vehicle
fibroid xenografts [3] = test: Quantitative RT-PCR of xenografts (Example 2); format: in vivo, SCID/Beige mice; conditions: 5 mg/kg, 8 weeks, n=13
Protocol: Total RNA was extracted from the xenografts using TRIzol (Thermo Fisher Scientific Inc., Waltham, MA). RNA concentration and integrity was determined using a Nanodrop 2000c spectrophotometer (Thermo Scientific, Wilmington, DE) and Agilent 2100 Bioanalyzer (Agilent Technologies, Santa Clara, CA) as previously described (7, 8). Briefly, 2 μg of RNA was reverse transcribed using random primers for selected genes according to the manufacturer's guidelines (Applied Biosystems, Carlsbad, CA). Quantitative RT-PCR was carried out using SYBR gene expression master mix (Applied Biosystems). Reactions were incubated for 10 min at 95° C. followed by 40 cycles for 15 seconds at 95° C. and 1 min at 60° C. The expression levels of selected genes were quantified using Invitrogen StepOne System with FBXW2 (F-box and WD repeat domain containing 2) used for normalization (9). All reactions were run in triplicate and relative mRNA expression was determined using the comparative cycle threshold method (2−ΔΔCq), as recommended by the supplier (Applied Biosystems). Values were expressed as fold change compared to the control group. […]

[4] = xenografts, 20 mg/kg daily, two months

## Cc1ccc(S(=O)(=O)/C=C/C#N)cc1 [Bay 11-7082]
Fibroid xenografts [1]
  cell proliferation: nuclei staining for Ki67, CCND1 and E2F1: reduced number of nuclei staining
  staining for collagen (Masson's trichrome, blue stain): significant decrease
  staining of cleaved caspase 3 (apoptosis): no significant change
Human fibroid explants
  mRNA levels of TLR3, TLR6, MyD88, TNFα, ESR1, HTR1B, TNFRSF11A: without significant effects
  mRNA levels of VEGFC, TDO2, TGFB3, LOX, E2F1, PRL, PGR, CKS2, SPARC, COL3A1, FN1, CCND1, IL8, IL6, IL1β: significant inhibition
Human fibroid explants; fibroid explants
  expression of miR-29c and miR-200c: significant increase
Fibroid xenografts [2]
  number of downregulated transcripts (RNAseq): 629
  number of upregulated transcripts (RNAseq): 374
Fibroid xenografts [2]; listed as Bay
  number of downregulated transcripts (RNAseq): 374
  number of upregulated transcripts (RNAseq): 629
Fibroid xenografts [2]; [4]
  RNAseq: expression of TDO2 and serotonin receptor HTR1B: significantly inhibited
  RNAseq: expression of growth factors (IGF1, EGF, PDGF, FGF8, PRL, TGFB3) and ECM components (COL3A1, KRT10): decrease
  RNAseq: genes of cell proliferation, mitosis, mitotic apparatus, cytokinesis (Ki67, E2F1, CCND1, CCNB1, CCNA2, BUB1, CKS2 and others): downregulated
  RNAseq: pro-inflammatory cytokines (IL1a, IL1b, TNF, IL6, IL15, IL7R, TNFRSF11A), TLR3, TLR6, chemokines (CXCCR4, CCR5, CCL3, CCL5): downregulation
Fibroid xenografts [2]; xenografts, two months, significant variation among animals
  RNAseq: vWF, ICAM1, ITGAX, SOX2, CXCL8, IL10, IL13: up-regulated
Fibroid xenografts [3]
  mRNA expression of COL1A1, COL3A1, FN1, TGF-β3, CCND1, CDK2, E2F1, EZH2, MyD88 and SPARC: significant decrease
